According to paper PMC3762829 (PLoS ONE, 2013):
Values joined by “and” are separate entries in the source; they are usually repeats but may differ in a detail not shown here. Equal values may be shown once. Read-outs that look alike come from different tables or passages of the source. Blank lines part the entries; values can stand above or below the compound they belong to.

Tests used:
hemoglobin = test system: hemoglobin; set-up: method as in PMID 14568007; conditions: cited from earlier work
HSA glycation by DHA = type: biochemical, human; conditions: HSA + 20 mM DHA
Description: The method of Rahbar et al., was followed with slight modifications for the determination of percent of AGEs formed [26].

[1] = test system: HbA1C formation (hemoglobin); test: Hemoglobin-δ-gluconolactone (δ-Glu) assay, early stage glycation; type: biochemical, human
Description: The Hemoglobin-δ-gluconolactone (δ-Glu) assay was performed as per previously published procedure. All the blood samples were analyzed in triplicates. The percent inhibition of HbA1C formation by the compound was calculated by: (B-C)/(B-A)X100, where A is HbA1C concentration in the baseline control tube not treated with δ-Glu, B is the HbA1C content of the test tube treated with δ-Glu, and C is the HbA1C levels in the sample treated with both δ-Glu and the compound under study.

platelets = test system: platelets
Description: Platelet rich plasma was obtained from the supernatant resulting from the centrifugation of blood at 200 g at room temperature.

[2] = test system: GK peptide cross linking in the presence of ribose; test: N-acetyl-glycyl-lysine methyl ester (GK peptide)-ribose assay, late glycation products; type: biochemical
Description: GK-peptide-ribose assay was performed with slight modifications from the previously published method. […] The fluorescence of the mixture was read at 340 nm excitation wavelength and 420 nm emission wavelengths using a Shimadzu RF-5301 spectrofluorometer.

[3] = test system: MG-mediated HSA glycation; conditions: 14 days
Description: The % inhibition of AGEs formation = [1 −(fluorescence of the test group/fluorescence of the control group)] × 100.

Compound: N=C(N)NN [AG, aminoguanidine]
effect on hemoglobin glycation (hemoglobin): no significant effect
inhibition of fluorescence associated with AGE product formation (HSA glycation by DHA; 10 mM): 70.1%
inhibition in the formation of HbA1c ([1]; 10 mM): 15%
total lactate dehydrogenase released in the incubation medium (platelets; 10 mM, incubation time 0 min): 0±0.000%
total lactate dehydrogenase released in the incubation medium (platelets; 10 mM, incubation time 30 min): 2.86±0.413%
total lactate dehydrogenase released in the incubation medium (platelets; 10 mM, incubation time 60 min): 4.23±0.432%
total lactate dehydrogenase released in the incubation medium (platelets; 10 mM, incubation time 90 min): 5.81±0.134%
total lactate dehydrogenase released in the incubation medium (platelets; 10 mM, incubation time 120 min): 6.63±0.232%
inhibition of late glycation products ([2]; 10 mM): 60%
inhibition of MG-catalysed HSA glycation ([3]; 10 mM, 40 mM MG, 37°C): 49%

total lactate dehydrogenase released in the incubation medium (platelets; 200 µM, incubation time 0 min): 0±0.000%
total lactate dehydrogenase released in the incubation medium (platelets; 200 µM, incubation time 30 min): 1.23±0.232%
total lactate dehydrogenase released in the incubation medium (platelets; 200 µM, incubation time 60 min): 2.23±0.331%
total lactate dehydrogenase released in the incubation medium (platelets; 200 µM, incubation time 90 min): 3.56±0.237%
total lactate dehydrogenase released in the incubation medium (platelets; 200 µM, incubation time 120 min): 4.23% and 4.23±0.352%
total lactate dehydrogenase released in the incubation medium (platelets; 225 µM, incubation time 120 min): 4.51±0.312%
total lactate dehydrogenase released in the incubation medium (platelets; 250 µM, incubation time 120 min): 5.63±0.563%
total lactate dehydrogenase released in the incubation medium (platelets; 300 µM, incubation time 120 min): 6.37±0.349%
Compound: CN(C)C(=N)N=C(N)N [MF, metformin]
inhibition in the formation of HbA1c ([1]; 10 µM): 11.6%
inhibition in the formation of HbA1c ([1]; 100 µM): 17.1%
inhibition in the formation of HbA1c ([1]; 500 µM): 23.3%
inhibition in the formation of HbA1c ([1]; 1000 µM, simultaneous incubation): 28.1%
inhibition of the formation of fluorescent products ([1]; pre-incubation of fresh blood with 1000 µM for 24 h, then δ-gluconolactone): 30.3%
cytotoxicity (LDH leakage), in words (platelets; 200 µM): not cytotoxic
cytotoxicity (LDH leakage), in words (platelets; above 200 µM): highly cytotoxic
inhibition of late glycation end products ([2]; 200 µM, 14 day period): 66%

inhibition of post-Amadori glycation and AGE formation (HSA glycation by DHA; 20 mM): 78.4%
total lactate dehydrogenase released in the incubation medium (platelets; human, 0 min, 20 mM): 0±0.000%
total lactate dehydrogenase released in the incubation medium (platelets; human, 30 min, 20 mM): 1.23±0.235%
total lactate dehydrogenase released in the incubation medium (platelets; human, 60 min, 20 mM): 2.11±0.230%
total lactate dehydrogenase released in the incubation medium (platelets; human, 90 min, 20 mM): 3.23±0.212%
total lactate dehydrogenase released in the incubation medium (platelets; human, 120 min, 22 mM): 3.92±0.683%
total lactate dehydrogenase released in the incubation medium (platelets; human, 120 min, 25 mM): 4.14±0.334%
inhibition of MG-catalysed HSA glycation ([3]; human, 10 mM, pH 7.4): 54%
inhibition of MG-catalysed HSA glycation ([3]; human, 20 mM, pH 7.4): 69%
Compound: Cc1ncc(CO)c(CN)c1O [PM, pyridoxamine]
inhibition in the formation of HbA1c ([1]; 1 mM): 9.1%
inhibition in the formation of HbA1c ([1]; 5 mM): 20.4%
inhibition in the formation of HbA1c ([1]; 10 mM): 29.3%
inhibition in the formation of HbA1c ([1]; 20 mM): 41.1%
inhibition of the formation of fluorescent products ([1]; pre-incubation of fresh blood with 20 mM for 24 h, then δ-gluconolactone): 47%
inhibition of the formation of fluorescent products ([1]; simultaneous incubation of whole blood, δ-gluconolactone and 10 mM (so in the source), data not shown): 41%
inhibition of late glycation end products ([2]; 20 mM): 79%
